Here are results for one molecule from publication PMC4979471 (Cell Death Discovery, 2015).

Like-named read-outs stand apart in the source and are kept apart here.

Holding throughout (assay): Kinase selectivity, P33-radiolabeled assay
Common to all, as to assay type: biochemical
Holding throughout (conditions): 10 μM ATP

For one test, the target named is T1, ULK2 (Homo sapiens, UniProt Q8IYT8).
T1 construct: purchased Reaction Biology Corp
T1 sequence (Q8IYT8 1-1036): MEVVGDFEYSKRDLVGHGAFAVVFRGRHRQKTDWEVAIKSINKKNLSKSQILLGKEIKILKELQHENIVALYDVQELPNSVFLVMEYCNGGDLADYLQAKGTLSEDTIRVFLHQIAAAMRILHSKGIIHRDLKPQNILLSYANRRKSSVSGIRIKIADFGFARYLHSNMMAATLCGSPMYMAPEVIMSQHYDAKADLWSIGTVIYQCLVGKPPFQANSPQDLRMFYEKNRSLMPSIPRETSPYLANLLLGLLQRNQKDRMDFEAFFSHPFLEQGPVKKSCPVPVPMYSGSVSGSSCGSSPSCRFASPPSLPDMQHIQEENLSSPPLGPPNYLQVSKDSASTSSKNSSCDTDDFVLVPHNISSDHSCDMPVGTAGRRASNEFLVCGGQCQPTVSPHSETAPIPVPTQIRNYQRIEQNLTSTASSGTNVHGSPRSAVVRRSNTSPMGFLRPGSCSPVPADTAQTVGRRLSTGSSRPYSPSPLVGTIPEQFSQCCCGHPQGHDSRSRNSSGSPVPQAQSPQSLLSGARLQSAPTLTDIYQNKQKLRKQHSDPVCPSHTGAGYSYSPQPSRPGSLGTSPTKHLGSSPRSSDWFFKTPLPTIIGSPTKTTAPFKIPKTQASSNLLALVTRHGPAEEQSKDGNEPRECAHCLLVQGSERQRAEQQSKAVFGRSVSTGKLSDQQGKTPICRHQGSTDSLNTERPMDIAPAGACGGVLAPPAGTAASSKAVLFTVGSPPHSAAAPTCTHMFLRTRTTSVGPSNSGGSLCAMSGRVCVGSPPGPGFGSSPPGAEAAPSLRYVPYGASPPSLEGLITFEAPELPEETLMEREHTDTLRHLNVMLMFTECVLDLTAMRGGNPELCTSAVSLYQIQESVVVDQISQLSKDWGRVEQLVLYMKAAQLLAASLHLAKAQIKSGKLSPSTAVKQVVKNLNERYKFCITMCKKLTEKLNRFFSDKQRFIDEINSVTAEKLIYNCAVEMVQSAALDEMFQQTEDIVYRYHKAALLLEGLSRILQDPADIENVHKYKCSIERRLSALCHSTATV
In outline: (§1)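 Duplicate single-concentration testing used 10 μM compound. The ATP concentration was also 10 μM.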

A further test has as its target T2, RIPK5 (Homo sapiens, UniProt Q6XUX3).
T2 construct: purchased Reaction Biology Corp
T2 sequence (Q6XUX3 1-929): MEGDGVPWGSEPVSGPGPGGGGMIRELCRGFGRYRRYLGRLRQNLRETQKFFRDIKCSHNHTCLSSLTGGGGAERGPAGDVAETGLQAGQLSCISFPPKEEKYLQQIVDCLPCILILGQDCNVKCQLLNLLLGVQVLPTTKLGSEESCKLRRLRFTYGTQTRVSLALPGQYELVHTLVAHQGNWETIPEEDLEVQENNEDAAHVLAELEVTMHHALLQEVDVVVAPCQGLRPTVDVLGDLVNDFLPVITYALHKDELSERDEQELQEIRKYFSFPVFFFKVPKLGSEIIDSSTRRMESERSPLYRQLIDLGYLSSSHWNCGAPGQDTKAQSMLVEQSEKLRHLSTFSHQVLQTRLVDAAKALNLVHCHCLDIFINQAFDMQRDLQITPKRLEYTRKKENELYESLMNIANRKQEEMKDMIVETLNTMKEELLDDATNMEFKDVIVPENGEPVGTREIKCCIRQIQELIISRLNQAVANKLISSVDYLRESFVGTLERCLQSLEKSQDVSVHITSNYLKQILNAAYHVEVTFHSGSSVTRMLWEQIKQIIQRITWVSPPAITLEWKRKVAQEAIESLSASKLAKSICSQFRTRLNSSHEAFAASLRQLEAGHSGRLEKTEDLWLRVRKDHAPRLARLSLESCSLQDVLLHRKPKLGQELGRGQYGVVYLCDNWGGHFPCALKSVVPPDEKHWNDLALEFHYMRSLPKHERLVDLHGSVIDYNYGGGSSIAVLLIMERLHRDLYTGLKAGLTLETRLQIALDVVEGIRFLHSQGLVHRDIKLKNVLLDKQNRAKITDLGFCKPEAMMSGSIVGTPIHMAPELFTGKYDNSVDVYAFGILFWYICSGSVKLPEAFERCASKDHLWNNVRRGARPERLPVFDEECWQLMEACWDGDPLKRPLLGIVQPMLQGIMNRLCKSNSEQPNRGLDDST
An outline of the steps: as §1

For another test, the target named is T3, GCK/MAP4K2 (Homo sapiens, UniProt Q12851).
T3 construct: purchased Reaction Biology Corp
T3 sequence (Q12851 1-820): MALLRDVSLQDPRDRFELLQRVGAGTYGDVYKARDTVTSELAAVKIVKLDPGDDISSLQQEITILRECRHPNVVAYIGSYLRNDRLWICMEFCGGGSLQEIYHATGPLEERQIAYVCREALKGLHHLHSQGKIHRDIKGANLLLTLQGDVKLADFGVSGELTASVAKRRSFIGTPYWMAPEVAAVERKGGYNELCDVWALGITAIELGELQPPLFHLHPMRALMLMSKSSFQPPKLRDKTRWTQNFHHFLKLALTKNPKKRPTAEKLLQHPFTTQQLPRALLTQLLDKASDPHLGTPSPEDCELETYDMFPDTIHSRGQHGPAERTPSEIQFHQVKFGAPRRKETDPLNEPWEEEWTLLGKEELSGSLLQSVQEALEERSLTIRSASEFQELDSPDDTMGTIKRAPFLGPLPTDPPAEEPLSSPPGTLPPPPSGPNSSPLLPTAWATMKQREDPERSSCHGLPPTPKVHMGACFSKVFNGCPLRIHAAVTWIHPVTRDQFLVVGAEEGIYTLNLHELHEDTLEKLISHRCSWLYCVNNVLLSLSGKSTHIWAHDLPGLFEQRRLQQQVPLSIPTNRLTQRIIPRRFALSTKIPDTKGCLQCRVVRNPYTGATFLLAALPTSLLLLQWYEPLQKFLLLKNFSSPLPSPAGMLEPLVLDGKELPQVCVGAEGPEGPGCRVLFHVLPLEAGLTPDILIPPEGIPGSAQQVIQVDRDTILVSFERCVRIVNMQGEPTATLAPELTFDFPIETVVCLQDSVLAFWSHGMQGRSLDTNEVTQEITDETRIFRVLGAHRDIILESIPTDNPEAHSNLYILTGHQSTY
An outline of the steps: as §1

[1] abbreviates: read-out: % Enzyme Activity (relative to DMSO controls) AVG.
[2] abbreviates: read-out: % Enzyme Activity (relative to DMSO controls) Data 1.
Setting [3] is: read-out: % Enzyme Activity (relative to DMSO controls) Data 2.

Regarding `CC(C)(C)C(=O)N1N=CC[C@H]1c1ccccc1` [GSK′963], the remaining activity at 10 µM at ULK2 (setting [1]) was 99.7%; on ULK2 (setting [2]), 99.8%; on ULK2 (setting [3]), 99.5%; on RIPK5 (setting [1]), 101%; at RIPK5 (setting [2]) it was 102%; at RIPK5 (setting [3]), 99.6%. Moreover, the remaining activity at 10 µM on GCK/MAP4K2 (setting [1]) is 109%; on GCK/MAP4K2 (setting [2]), 108%; at GCK/MAP4K2 (setting [3]) it was 110%.
